We go through one molecule from PMC12610274, “Identification of Marrubiin as a Cathepsin C Inhibitor for Treating Rheumatoid Arthritis” (Molecules, 2025).

Series [1] in a line: Cytotoxicity assay, U937 cell line. It is filed as cell-based. To be noted: human, U937 cells. As for the experimental part: RAW264.7 cells and U937 cells in the logarithmic growth phase were counted and diluted, and the concentrations of the single-cell suspensions of the two types of cells were adjusted to 5 × 10^4 cells/mL and 3 × 10^4 cells/mL, respectively. After thorough mixing, the cells were seeded into a 96-well plate, with 100 μL of cell suspension added to each well. Prepare the working solution of test compounds using the corresponding medium as the solvent, with the concentration of working solution being 2 times the final test concentration (2.5 μM, 5 μM, 10 μM, 20 μM, and 40 μM). Twenty-four hours after cell seeding, the compound working solutions were added to the compound test wells, and the same volume of medium was added to the negative control wells, followed by continuous incubation for another 24 h. Only the wells with the same volume but without cells served as the blank control group. The CellTiter-Lumi™ luminescent cell viability assay kit (Beyotime Biotechnology, Shanghai, China, C0065XL) was used to detect cell viability according to the standard operating procedures. Each group of tests was independently repeated at least 3 times, and IC50 values were calculated using SPSS 10.0.

The target of series [2] is Dipeptidyl Peptidase 8 (Homo sapiens, UniProt Q6V1X1). Put plainly: Recombinant dipeptidyl peptidases isolated enzyme assay, DPP8. The conditions noted are these: read-out: Dipeptidyl Peptidase 8 Enz (IC50: μM). It is filed as biochemical. The text has this: Table 3 Inhibitory effects of marrubiin on dipeptidyl peptidase. | column: Dipeptidyl Peptidase 8 Enz (IC50: μM)

The target in series [3] is T1, NE (Homo sapiens, UniProt P08246).
T1 construct: purchased MedChemExpress
Nature of the series: Recombinant NSPs isolated enzyme assay, NE. To be noted: read-out: NE Enz (IC50: μM). The class given is biochemical. The text has this: The protocol for evaluating the inhibitory potency of compounds against other cathepsins referred to the CTSC activity assay. Recombinant human CTSB, CTSL, CTSS and CTSK for testing were also purchased from R&D Systems Biotechnology Company. Recombinant human Cat G, NE, and PR3 For testing were purchased from MedChemExpress. A multi-functional microplate reader was used to measure the absorption of Z-Leu-Arg-AMC at excitation/emission wavelengths of 380/460 nm to assess the activity changes of CTSB and CTSL, while the absorption of MCA-Arg-Pro-Lys-Pro-Val-Glu-NVAL-Trp-Arg-Lys(DNP)-NH2 at 320/405 nm was measured to evaluate the activity changes of CTSS and CTSK. Different assay buffers were prepared for diluting samples and measuring the activities of specific NSPs: a buffer containing 50 mM Tris and 750 mM NaCl (pH 7.4) was used for NE and PR3; a buffer containing 50 mM Tris, 750 mM NaCl, 5 mM EDTA (pH 7.4) was used for Cat G; and a buffer containing 25 mM MES, 50 mM NaCl, 5 mM DTT (pH 6.0) was used for CTSC. Synthetic substrates were employed to assess the activities of NSPs and CTSC: H-Gly-Arg-AMC for CTSC, N-MeSuc-Ala-Ala-Pro-Val-pNA for NE, aminobenzoyl-Val-Ala-Asp-Cys-Ala-Asp-Gln-ethylenediamine 2,4-dinitrophenyl for PR3, and N-Suc-Ala-Ala-Pro-Phe-pNA for Cat G. Each group of tests was independently repeated at least 3 times, and IC50 values were calculated using SPSS 10.0.

In series [4] the test system is LPS-induced NO release by RAW 264.7 macrophages. Put plainly: LPS-induced NO release, Griess reagent. The conditions noted are these: Mus musculus, RAW264.7; LPS-stimulated RAW 264.7, 24 h. It is filed as cell-based. The protocol:
(§1) RAW264.7 cells in the logarithmic growth phase were counted and diluted to a concentration of 6 × 10^4 cells/mL. After thorough mixing, the cell suspension was seeded into 48-well plates and incubated in a humidified atmosphere containing 5% CO2 at 37 °C. Following 24 h of incubation, the culture medium was carefully aspirated, and the cells were gently washed with phosphate-buffered saline. […] After 1 h of pre-incubation, 30 μL of lipopolysaccharide (1 μg/mL) was added to each well except for the blank control group, which remained unstimulated. Following an additional 24 h incubation under identical conditions, the culture supernatants were collected to assess NO production using the Griess reagent assay. Concentrations of pro-inflammatory cytokines and chemokines were determined using commercially available ELISA kits according to the protocols.
Background: Griess reagent forms a coloured azo dye with nitrite.

The test system of series [5] is TNF-α, IL-6, IL-1β, MCP-1, CXCL2 in RAW 264.7 cells. Nature of the series: LPS-induced cytokine and chemokine secretion, ELISA. It is filed as cell-based, mouse. The conditions noted are these: LPS-stimulated RAW 264.7 cells, 24 h, concentration-dependent. As for the experimental part:
as §1

Series [6] deals with PR3. Nature of the series: NSPs activity in U937 cells after 5 days of treatment, PR3. The class given is cell-based, human. To be noted: U937, 10 μM. As for the experimental part:
U937 cells in the logarithmic growth phase were collected and equally divided into six portions. Four of these portions were treated with DMSO solutions of the test compound at varying concentrations to achieve final concentrations of 1.25, 2.5, 5, and 10 μM, respectively. An equal volume of DMSO was added to one portion as a blank control, while another portion treated with a DMSO solution of AZD7986 served as a positive control. The cells were cultured under standard U937 conditions for 5 consecutive days, with daily medium changes and fresh compound treatments administered using the same protocol. Following 5 days of treatment, cells were harvested, washed twice thoroughly with phosphate-buffered saline, and lysed in phosphate-buffered saline containing 1% Triton X-100. The lysates were centrifuged to collect the supernatant, and protein concentrations were determined as previously described to ensure equal total protein loading across all samples. The prepared samples were stored at −20 °C until further analysis. Different assay buffers were prepared for diluting samples and measuring the activities of specific NSPs: a buffer containing 50 mM Tris and 750 mM NaCl (pH 7.4) was used for NE and PR3; a buffer containing 50 mM Tris, 750 mM NaCl, 5 mM EDTA (pH 7.4) was used for Cat G; and a buffer containing 25 mM MES, 50 mM NaCl, 5 mM DTT (pH 6.0) was used for CTSC. […]

The test system of series [7] is NE. Nature of the series: NE activity in blood and bone marrow of mice. The class given is in vivo, C57BL/6 mice. To be noted: 30 mg/kg daily gavage, 7 days. The protocol:
A total of 25 C57BL/6 mice (6–8 weeks old, weighing approximately 20 g, with equal numbers of males and females) were randomly divided into five groups. Mice in the compound-treated groups were orally administered the compound once daily at doses of 0.3, 3, and 30 mg/kg for 7 consecutive days. […] Mice in the normal group were given an equal volume of normal saline at the same time points. The body weight, death rate, and behavior were observed and recorded daily for one week. After 7 days, bone marrow and blood samples were collected from the mice and lysed using 8% Triton X-100 buffer. The lysates were stored at −20 °C until testing. The activity assays for CTSC and NSPs were performed as described above. The mice were anesthetized and the tissues were taken for H&E staining.

T1 sequence (P08246 30-267): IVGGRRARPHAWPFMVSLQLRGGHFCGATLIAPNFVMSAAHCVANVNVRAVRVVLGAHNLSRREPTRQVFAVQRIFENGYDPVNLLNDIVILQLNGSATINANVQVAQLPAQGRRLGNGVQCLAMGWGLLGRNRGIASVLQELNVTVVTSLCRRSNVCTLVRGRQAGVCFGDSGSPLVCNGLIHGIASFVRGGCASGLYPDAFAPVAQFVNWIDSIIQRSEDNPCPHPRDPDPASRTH
Chain of Dipeptidyl Peptidase 8 (Q6V1X1 whole entry, species assumed): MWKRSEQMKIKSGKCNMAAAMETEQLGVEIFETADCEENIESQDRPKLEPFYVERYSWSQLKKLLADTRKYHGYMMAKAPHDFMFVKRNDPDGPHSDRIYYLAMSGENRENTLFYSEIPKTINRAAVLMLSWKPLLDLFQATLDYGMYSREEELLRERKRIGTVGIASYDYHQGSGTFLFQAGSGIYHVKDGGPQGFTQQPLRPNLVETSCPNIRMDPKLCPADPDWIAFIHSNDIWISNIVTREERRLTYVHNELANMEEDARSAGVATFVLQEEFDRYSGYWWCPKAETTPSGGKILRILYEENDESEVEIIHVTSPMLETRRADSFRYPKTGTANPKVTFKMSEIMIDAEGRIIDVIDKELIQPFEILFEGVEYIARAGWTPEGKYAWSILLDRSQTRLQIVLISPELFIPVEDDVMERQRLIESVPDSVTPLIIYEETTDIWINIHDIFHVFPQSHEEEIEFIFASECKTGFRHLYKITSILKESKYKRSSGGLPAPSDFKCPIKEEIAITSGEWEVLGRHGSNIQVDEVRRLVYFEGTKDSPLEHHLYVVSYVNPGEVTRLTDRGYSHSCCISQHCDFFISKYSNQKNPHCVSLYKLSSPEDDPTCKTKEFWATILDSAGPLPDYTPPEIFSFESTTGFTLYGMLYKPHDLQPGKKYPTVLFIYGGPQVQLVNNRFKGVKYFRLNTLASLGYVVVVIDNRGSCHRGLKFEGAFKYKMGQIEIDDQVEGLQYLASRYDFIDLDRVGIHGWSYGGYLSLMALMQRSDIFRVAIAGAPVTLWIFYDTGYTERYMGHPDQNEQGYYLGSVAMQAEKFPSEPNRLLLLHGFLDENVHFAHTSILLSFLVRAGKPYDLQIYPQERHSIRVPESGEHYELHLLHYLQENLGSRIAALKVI

As usually defined, the IC50 is the concentration that gives 50% inhibition. On to `C[C@@H]1C[C@H]2OC(=O)[C@@]3(C)CCC[C@@](C)([C@@H]23)[C@@]1(O)CCc1ccoc1` [Marrubiin, marrubiin], for which the IC50 at 24 h in series [1] was over 10 µM. Also, the values for the IC50 in series [2], in series [3] and in series [4] were over 10 µM, over 10 µM and 0.83 µM, respectively. Besides, the “relative levels of TNF-α, IL-6, IL-1β, MCP-1, CXCL2” value in series [5] is on record as “reduced to varying degrees”. For the same molecule, in series [6], the “PR3 activity, % of DMSO group” value stood at 10.3%. For the same molecule, the “remaining activity rate of NE” value in series [7] (blood) is about 9.9%; in series [7] (bone marrow), about 20.9%.
